# Values joined by “and” are separate entries in the source; they are usually repeats but may differ in a detail not shown here. Equal values may be shown once. “Also recorded” adds a separate entry of the source.
# Assays:
# recurrent GBM [1] = test: DCE-MRI of tumor perfusion and permeability before and after olaparib; type: in vivo, human; details: stage 1 and dose expansion patients, cycle 0
# Protocol: (§1) Secondary endpoints included PFS at 6 months (PFS-6, assessed radiologically using the RANO criteria) and radiological measurement of BBB permeability and perfusion by diffusion weighted and dynamic contrast-enhanced (DCE) MRI. […] Further details of the imaging protocol are provided in the Supplementary Material. Confidence intervals for PFS data were calculated using the exact binomial distribution.
# The imaging protocol included four pre-contrast spoiled fast field echo (T1-FFE spoiled gradient echo) sequences with different flip angles (2o, 8o, 15o, 16-20o) for calculation of baseline T1 maps allowing estimation of contrast concentration from observed signal changes and a dynamic, contrast enhanced acquisition series with identical acquisition parameters as the 4th variable flip angle baseline T1 measurement (16-20o), consisting of 100-120 volumes with temporal spacing of 5.1-5.5 seconds (s). Gadolinium-based contrast agent (Gd-DTPA-BMA; Omniscan, GE Healthcare, Oslo, Norway) was injected by pressure injector as a 3 ml bolus at 4 ml/s (dose 0.1 mmol/kg) after acquisition of the seventh image volume, followed by saline flush. Data were analysed using the hybrid model [Li, Jackson Mag Res Med 2003] and in-house software. ROI placement was manual and enhancing pixels were identified through significant change in signal intensity following administration of contrast. […]
# [2] = Whole body autoradiography after single oral [14C]-olaparib; type: in vivo, pigmented rats; details: for radioactivity concentration, Blood / radioactivity concentration, Brain / radioactivity concentration, Choroid plexus / radioactivity concentration, Kidney cortex (outer) / radioactivity concentration, Large intestine mucosa / radioactivity concentration, Liver / radioactivity concentration, Meninges / radioactivity concentration, Pineal body / radioactivity concentration, Plasma / radioactivity concentration, Small intestine mucosa / radioactivity concentration, Spinal cord: rat, oral [14C]-olaparib 15 mg/kg
# Protocol: Canine kidney epithelial cells, stably expressing human MDR1 cDNA (Madin-Darby canine kidney type II [MDCKII]–MDR1 cells) or empty vector (MDCKII control), were used to model the intact BBB and determine permeability coefficients of (^14C)-olaparib in the presence of ketoconazole (25 μM). Whole body autoradiography was performed on male pigmented rats after single oral administration of [^14C]-olaparib (15 mg/kg; 5 MBq/kg). For autoradiography studies, animal care and experiments were carried out in accordance with AstraZeneca guidelines, which comply with UK standards. […] Xenograft experiments were performed under the relevant UK Home Office Project Licence and carried out with ethical approval from the University of Glasgow under the Animal (Scientific Procedures) Act 1986 and the EU directive 2010. Mice were maintained in individually ventilated cages with environmental enrichment and following the guidelines of ARRIVE (Animal Research: Reporting of In Vivo Experiments). […] Ratiometric t-test analysis determined SER confidence intervals and P-values. Further details are available in the Supplementary Material.
# Apparent permeability coefficients were calculated for apical to basolateral (Papp a‒b) and basolateral to apical transport (Papp b‒a) as described in Methods. […] (B) Single oral doses of 15 mg/kg [14C]-olaparib were administered to male pigmented rats that were subsequently culled, sectioned, and subjected to whole body autoradiography at the timepoints shown. Radioactivity was excluded from the central nervous system in all animals at all timepoints. […] Blood, tumor, and contralateral (non tumor bearing) brain were harvested and snap frozen at the time points shown. […] Note different y-axis scales.
# For autoradiography studies, animal care and experiments were carried out in accordance with AstraZeneca guidelines. Male and female pigmented rats and female BALB/c nu/nu mice bearing subcutaneous HCT-116 colorectal carcinoma xenografts were treated with 15 mg/kg [^14C]-olaparib. Animals were culled by asphyxiation, carcasses frozen in hexane and solid carbon dioxide then subjected to whole body autoradiography. Radioactivity concentrations in tissue were quantified from whole-body autoradiograms using a validated image analysis system.
# recurrent GBM [3] = test: Efficacy: progression-free survival at 6 months (RANO); type: in vivo, human; details: olaparib with TMZ
# Protocol: as §1
smiles,measurement,setting,value
"O=C(c1cc(Cc2n[nH]c(=O)c3ccccc23)ccc1F)N1CCN(C(=O)C2CC2)CC1 [olaparib, 4-[3-(4-cyclopropanecarbonylpiperazine-1-carbonyl)-4-fluorobenzyl]-2H-phthalazin-1-one]",changes in perfusion or permeability parameters between baseline and post-olaparib scans,recurrent GBM [1],no significant changes
same,radioactivity in brain or spinal cord (brain penetration),"[2]; male and female rats, single [14C]-olaparib 15 mg/kg, 5 MBq/kg, any timepoint",no brain penetration; also recorded: undetectable
same,"radioactivity concentration, Blood",[2]; 1 hr,2.44 nmol equivalents of olaparib per gram of tissue
same,"radioactivity concentration, Brain",[2]; 1 hr,BLQ
same,"radioactivity concentration, Choroid plexus",[2]; 1 hr,0.618 nmol equivalents of olaparib per gram of tissue
same,"radioactivity concentration, Kidney cortex (outer)",[2]; 1 hr,9.52 nmol equivalents of olaparib per gram of tissue
same,"radioactivity concentration, Large intestine mucosa",[2]; 1 hr,12.1 nmol equivalents of olaparib per gram of tissue
same,"radioactivity concentration, Liver",[2]; 1 hr,112 nmol equivalents of olaparib per gram of tissue
same,"radioactivity concentration, Meninges",[2]; 1 hr,0.847 nmol equivalents of olaparib per gram of tissue
same,"radioactivity concentration, Pineal body",[2]; 1 hr,2.13 nmol equivalents of olaparib per gram of tissue
same,"radioactivity concentration, Plasma",[2]; 1 hr,9.69 nmol equivalents of olaparib per gram of tissue
same,"radioactivity concentration, Small intestine mucosa",[2]; 1 hr,60.5 nmol equivalents of olaparib per gram of tissue
same,"radioactivity concentration, Spinal cord",[2]; 1 hr,BLQ
same,"radioactivity concentration, Blood",[2]; 4 hr,0.729 nmol equivalents of olaparib per gram of tissue
same,"radioactivity concentration, Brain",[2]; 4 hr,BLQ
same,"radioactivity concentration, Choroid plexus",[2]; 4 hr,0.228 nmol equivalents of olaparib per gram of tissue
same,"radioactivity concentration, Kidney cortex (outer)",[2]; 4 hr,3.16 nmol equivalents of olaparib per gram of tissue
same,"radioactivity concentration, Large intestine mucosa",[2]; 4 hr,11.1 nmol equivalents of olaparib per gram of tissue
same,"radioactivity concentration, Liver",[2]; 4 hr,49.3 nmol equivalents of olaparib per gram of tissue
same,"radioactivity concentration, Meninges",[2]; 4 hr,0.500 nmol equivalents of olaparib per gram of tissue
same,"radioactivity concentration, Pineal body",[2]; 4 hr,0.318 nmol equivalents of olaparib per gram of tissue
same,"radioactivity concentration, Plasma",[2]; 4 hr,2.11 nmol equivalents of olaparib per gram of tissue
same,"radioactivity concentration, Small intestine mucosa",[2]; 4 hr,19.1 nmol equivalents of olaparib per gram of tissue
same,"radioactivity concentration, Spinal cord",[2]; 4 hr,BLQ
same,"radioactivity concentration, Blood",[2]; 8 hr,0.171 nmol equivalents of olaparib per gram of tissue
same,"radioactivity concentration, Brain",[2]; 8 hr,BLQ
same,"radioactivity concentration, Choroid plexus",[2]; 8 hr,BLQ
same,"radioactivity concentration, Kidney cortex (outer)",[2]; 8 hr,1.49 nmol equivalents of olaparib per gram of tissue
same,"radioactivity concentration, Large intestine mucosa",[2]; 8 hr,39.8 nmol equivalents of olaparib per gram of tissue
same,"radioactivity concentration, Liver",[2]; 8 hr,14.7 nmol equivalents of olaparib per gram of tissue
same,"radioactivity concentration, Meninges",[2]; 8 hr,BLQ
same,"radioactivity concentration, Pineal body",[2]; 8 hr,0.248 nmol equivalents of olaparib per gram of tissue
same,"radioactivity concentration, Plasma",[2]; 8 hr,0.180 nmol equivalents of olaparib per gram of tissue
same,"radioactivity concentration, Small intestine mucosa",[2]; 8 hr,7.93 nmol equivalents of olaparib per gram of tissue
same,"radioactivity concentration, Spinal cord",[2]; 8 hr,BLQ
same,"radioactivity concentration, Blood",[2]; 24 hr,BLQ^3
same,"radioactivity concentration, Brain",[2]; 24 hr,BLQ
same,"radioactivity concentration, Choroid plexus",[2]; 24 hr,BLQ
same,"radioactivity concentration, Kidney cortex (outer)",[2]; 24 hr,0.248 nmol equivalents of olaparib per gram of tissue
same,"radioactivity concentration, Large intestine mucosa",[2]; 24 hr,2.10 nmol equivalents of olaparib per gram of tissue
same,"radioactivity concentration, Liver",[2]; 24 hr,2.23 nmol equivalents of olaparib per gram of tissue
same,"radioactivity concentration, Meninges",[2]; 24 hr,BLQ
same,"radioactivity concentration, Pineal body",[2]; 24 hr,BLQ
same,"radioactivity concentration, Plasma",[2]; 24 hr,0.046 nmol equivalents of olaparib per gram of tissue
same,"radioactivity concentration, Small intestine mucosa",[2]; 24 hr,1.19 nmol equivalents of olaparib per gram of tissue
same,"radioactivity concentration, Spinal cord",[2]; 24 hr,BLQ
same,"radioactivity concentration, Blood",[2]; 72 hr,BLQ
same,"radioactivity concentration, Brain",[2]; 72 hr,BLQ
same,"radioactivity concentration, Choroid plexus",[2]; 72 hr,BLQ
same,"radioactivity concentration, Kidney cortex (outer)",[2]; 72 hr,0.202 nmol equivalents of olaparib per gram of tissue
same,"radioactivity concentration, Large intestine mucosa",[2]; 72 hr,BLQ
same,"radioactivity concentration, Liver",[2]; 72 hr,0.604 nmol equivalents of olaparib per gram of tissue
same,"radioactivity concentration, Meninges",[2]; 72 hr,BLQ
same,"radioactivity concentration, Pineal body",[2]; 72 hr,BLQ
same,"radioactivity concentration, Plasma",[2]; 72 hr,0.009 nmol equivalents of olaparib per gram of tissue
same,"radioactivity concentration, Small intestine mucosa",[2]; 72 hr,BLQ
same,"radioactivity concentration, Spinal cord",[2]; 72 hr,BLQ
same,"radioactivity concentration, Blood",[2]; 168 hr,BLQ
same,"radioactivity concentration, Brain",[2]; 168 hr,BLQ
same,"radioactivity concentration, Choroid plexus",[2]; 168 hr,BLQ
same,"radioactivity concentration, Kidney cortex (outer)",[2]; 168 hr,BLQ
same,"radioactivity concentration, Large intestine mucosa",[2]; 168 hr,BLQ
same,"radioactivity concentration, Liver",[2]; 168 hr,0.164 nmol equivalents of olaparib per gram of tissue
same,"radioactivity concentration, Meninges",[2]; 168 hr,BLQ
same,"radioactivity concentration, Pineal body",[2]; 168 hr,BLQ
same,"radioactivity concentration, Small intestine mucosa",[2]; 168 hr,BLQ
same,"radioactivity concentration, Spinal cord",[2]; 168 hr,BLQ
same,patients progression free at 6 months (PFS-6),recurrent GBM [3]; evaluable patients,36% and 39%
same,number of patients progression free at 6 months,recurrent GBM [3]; of 36 patients evaluable for efficacy,14
